28 compounds from patent US20250059164A1, “IRAK DEGRADERS AND USES THEREOF” (Kymera Therapeutics, Inc., priority 2023, published 2025) can be followed below.

Series [1] addresses T1, IRAK4 (Homo sapiens, UniProt Q9NWZ3).
T1 construct: endogenous in cells; host or cells: OCI-LY10
T1 sequence (Q9NWZ3 1-460): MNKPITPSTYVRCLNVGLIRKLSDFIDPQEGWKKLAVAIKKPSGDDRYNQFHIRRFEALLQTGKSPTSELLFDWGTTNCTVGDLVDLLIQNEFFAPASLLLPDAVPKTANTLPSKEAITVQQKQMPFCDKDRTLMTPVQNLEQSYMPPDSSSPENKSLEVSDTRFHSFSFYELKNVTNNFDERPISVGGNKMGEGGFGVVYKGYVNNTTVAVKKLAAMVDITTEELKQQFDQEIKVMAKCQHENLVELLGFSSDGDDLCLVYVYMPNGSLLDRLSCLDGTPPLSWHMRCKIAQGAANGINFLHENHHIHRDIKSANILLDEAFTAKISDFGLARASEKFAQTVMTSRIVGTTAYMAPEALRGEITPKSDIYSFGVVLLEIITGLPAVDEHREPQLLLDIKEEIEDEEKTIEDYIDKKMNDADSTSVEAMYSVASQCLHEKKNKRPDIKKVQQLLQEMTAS
The series can be described thus: IRAK4 MSD degradation in OCI-LY10. The class given is cell-based. Conditions: OCI-LY10 cells, 24 hrs, Meso Scale Discovery. The method in brief: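 OCI-LY10 cells treated 4 to 24 hours at 37° C. with 8-dose 1:3 series, top 1 to 10 μM. IRAK4 in lysates quantified by MSD sandwich immunoassay (mouse capture, rabbit detection, SULFO-TAG anti-rabbit). DC50 from three-parameter logistic fit.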

A short description of series [2]: Rodent pharmacokinetics (rat PK). Format: in vivo. The following applies: po, dosed intravenously or orally by gavage, plasma, read-out: F % (bioavailability). As to the method: All studies related to handling, care, and treatment of rats in the study were performed according to the guidelines approved by the Institutional Animal Care and Use Committee (IACUC). All rats had access to food and water ad libitum. Rats were dosed intravenously or orally by gavage. Whole blood was collected from the jugular vein immediately prior to dosing and at 5 (intravenously administered drugs only), 15, and 30 min and 1, 2, 4, 8, and 24 h after drug administration. After sampling, whole blood was centrifuged at 4,000×g for 5 min at 4° C. to obtain plasma.
The letter codes for bioavailability (F %) include: A (≥5%) and B (≤5%).

The structures appear in SMILES notation. Where only a bound is given, the exact number is not on record here.

With `CN(C[C@H]1CC[C@H](c2nc3cc(C(C)(C)O)c(NC(=O)c4cccc(C(F)(F)F)n4)cc3s2)CC1)[C@@H]1CCN(c2cccc3c2n(C)c(=O)n3C2CCC(=O)NC2=O)C[C@H]1F` (single isomer, unassigned) [I-238], the DC50 (in general, the concentration giving 50% degradation) in series [1] was less than 10 nM. Besides, in series [2], the bioavailability (in general, the share of a dose that reaches the circulation, judged against a reference dose that is usually intravenous) was no less than 5%.
Consider `COc1cc2nn([C@H]3CC[C@H](CN4CC[C@@H](c5cccc6c5n(C)c(=O)n6C5CCC(=O)NC5=O)C(F)(F)C4)CC3)cc2cc1NC(=O)c1cncc(C#N)c1` (single isomer, unassigned) [I-240], for which the DC50 in series [1] was less than 10 nM. Also, the bioavailability in series [2] is no more than 5%.
`COc1cc2nn([C@H]3CC[C@H](CN4CC[C@@H](c5cccc6c(C7CCC(=O)NC7=O)nn(C)c56)[C@H](F)C4)CC3)cc2cc1NC(=O)c1cncc(C#N)c1` (single isomer, unassigned) [I-263] gave a DC50 in series [1] of less than 10 nM. The bioavailability in series [2] was no more than 5%.
In the same order, the values of `COc1cc2nn([C@H]3CC[C@H](CN4CC[C@H](c5cccc6c(C7CCC(=O)NC7=O)nn(C)c56)[C@@H](F)C4)CC3)cc2cc1NC(=O)c1cncc(C#N)c1` (single isomer, unassigned) [I-264] are less than 10 nM and no more than 5%.
For `COc1cc2nn([C@H]3CC[C@H](CN4CC[C@H](c5cccc6c5c(C)nn6C5CCC(=O)NC5=O)[C@@H](F)C4)CC3)cc2cc1NC(=O)c1cncc(C#N)c1` (single isomer, unassigned) [I-266], in that order: less than 10 nM and no more than 5%.
For `COc1cc2nc([C@H]3CC[C@H](CN4CC[C@@H](c5cccc6c5n(C)c(=O)n6C5CCC(=O)NC5=O)C(F)(F)C4)CC3)sc2cc1NC(=O)c1cncc(C#N)c1` (single isomer, unassigned) [I-273], in that order: greater than 200 nM and no more than 5%.
Turning to `CN(C[C@H]1CC[C@H](n2cc(NC(=O)c3cnn4cccnc34)c(C(F)F)n2)CC1)[C@@H]1CCN(c2cccc3c2n(C)c(=O)n3C2CCC(=O)NC2=O)C[C@H]1F` (single isomer, unassigned) [I-279], the DC50 in series [1] is less than 10 nM. Further, in series [2], the bioavailability is no less than 5%.
For `CN(C[C@H]1CC[C@H](n2cc(NC(=O)c3cnn4cccnc34)c(C(F)F)n2)CC1)[C@H]1CCN(c2cccc3c2n(C)c(=O)n3C2CCC(=O)NC2=O)C[C@@H]1F` (single isomer, unassigned) [I-280], in that order: less than 10 nM and no less than 5%.
In the same order, the values of `CN(C[C@H]1CC[C@H](n2cc(NC(=O)c3cnn4cccnc34)c(C(F)F)n2)CC1)[C@@H]1CCN(c2cccc3c2n(C)c(=O)n3C2CCC(=O)NC2=O)C[C@@H]1F` (single isomer, unassigned) [I-281] are less than 10 nM and no less than 5%.
In the same order, the values of `CN(C[C@H]1CC[C@H](c2cn3cc(NC(=O)c4cncc(C(F)(F)F)n4)ccc3n2)CC1)[C@@H]1CCN(c2cccc3c2n(C)c(=O)n3C2CCC(=O)NC2=O)C[C@H]1F` (single isomer, unassigned) [I-293] are 10 to 100 nM and no more than 5%.
The compound `CN(C[C@H]1CC[C@H](c2cn3cc(NC(=O)c4cncc(C(F)(F)F)n4)ccc3n2)CC1)[C@H]1CCN(c2cccc3c2n(C)c(=O)n3C2CCC(=O)NC2=O)C[C@@H]1F` (single isomer, unassigned) [I-294] showed a DC50 in series [1] of less than 10 nM. The bioavailability in series [2] is no more than 5%.
In the same order, the values of `CN(C[C@H]1CC[C@H](c2nc3cc(C(C)(C)O)c(NC(=O)c4cncc(C(F)(F)F)n4)cc3o2)CC1)[C@@H]1CCN(c2cccc3c2n(C)c(=O)n3C2CCC(=O)NC2=O)C[C@H]1F` (single isomer, unassigned) [I-297] are 10 to 100 nM and no less than 5%.
On to `COc1cn2nc([C@H]3CC[C@H](CN(C)[C@@H]4CCN(c5cccc6c5n(C)c(=O)n6C5CCC(=O)NC5=O)C[C@@H]4F)CC3)cc2cc1NC(=O)c1cncc(C(F)(F)F)n1` (single isomer, unassigned) [I-302], for which the DC50 in series [1] was less than 10 nM. In series [2], the bioavailability is no more than 5%.
For `Cn1c(=O)n(C2CCC(=O)NC2=O)c2cccc(C#CCN3CCN(C[C@H]4CC[C@H](n5cc(NC(=O)c6cnn7ccc(N8C[C@H]9C[C@@H]8CO9)nc67)c(C(F)F)n5)CC4)C[C@H]3C(F)(F)F)c21` (single isomer, unassigned) [I-304], in that order: 10 to 100 nM and no less than 5%.
In the same order, the values of `CN(C[C@H]1CC[C@H](c2nc3cc(C(C)(C)O)c(NC(=O)c4cncc(C(F)(F)F)n4)cc3s2)CC1)[C@@H]1CCN(c2cccc3c2n(C)c(=O)n3C2CCC(=O)NC2=O)C[C@@H]1F` (single isomer, unassigned) [I-309] are less than 10 nM and no less than 5%.
For `Cn1c(=O)n(C2CCC(=O)NC2=O)c2cccc(N3CCN(C[C@H]4CC[C@H](n5cc6cc(NC(=O)c7cncc(C(F)(F)F)n7)ccc6n5)CC4)C[C@@H]3C(F)(F)F)c21` (single isomer, unassigned) [I-313], in that order: less than 10 nM and no less than 5%.
`COc1cc2nc([C@H]3CC[C@H](CN(C)[C@@H]4CCN(c5cccc6c5n(C)c(=O)n6C5CCC(=O)NC5=O)C[C@@H]4F)CC3)cn2cc1NC(=O)c1cncc(C(F)(F)F)n1` (single isomer, unassigned) [I-319] displayed a DC50 in series [1] of less than 10 nM. Also, in series [2], the bioavailability is no more than 5%.
For `Cn1c(=O)n(C2CCC(=O)NC2=O)c2cccc([C@@H]3CCN(C[C@H]4CC[C@H](n5cc(NC(=O)c6cnn7ccc(N8C[C@H]9C[C@@H]8CO9)nc67)c(C(F)F)n5)CC4)C[C@H]3F)c21` (single isomer, unassigned) [I-329], in that order: less than 10 nM and no more than 5%.
Regarding `Cn1c(=O)n(C2CCC(=O)NC2=O)c2cccc([C@H]3CCN(C[C@H]4CC[C@H](n5cc(NC(=O)c6cnn7ccc(N8C[C@H]9C[C@@H]8CO9)nc67)c(C(F)F)n5)CC4)C[C@@H]3F)c21` (single isomer, unassigned) [I-330], the DC50 in series [1] was less than 10 nM. Also, the bioavailability in series [2] is no more than 5%.
For `Cn1c(=O)n(C2CCC(=O)NC2=O)c2cccc([C@@H]3CCN(C[C@H]4CC[C@H](n5cc(NC(=O)c6cnn7ccc(N8C[C@H]9C[C@@H]8CO9)nc67)c(C(F)F)n5)CC4)CC3(F)F)c21` (single isomer, unassigned) [I-331], in that order: less than 10 nM and no more than 5%.
In the same order, the values of `Cn1c(=O)n(C2CCC(=O)NC2=O)c2cccc([C@H]3CCN(C[C@H]4CC[C@H](n5cc(NC(=O)c6cnn7ccc(N8C[C@H]9C[C@@H]8CO9)nc67)c(C(F)F)n5)CC4)CC3(F)F)c21` (single isomer, unassigned) [I-332] are less than 10 nM and no more than 5%.
In the same order, the values of `Cc1nn(C2CCC(=O)NC2=O)c2cccc([C@@H]3CCN(C[C@H]4CC[C@H](n5cc6cc(NC(=O)c7cncc(C(F)(F)F)n7)ncc6n5)CC4)C[C@H]3F)c12` (single isomer, unassigned) [I-340] are 10 to 100 nM and no less than 5%.
With `Cn1c(=O)n(C2CCC(=O)NC2=O)c2ccc(F)c([C@@H]3CCN(C[C@H]4CC[C@H](n5cc6cc(NC(=O)c7cncc(C(F)(F)F)n7)ccc6n5)CC4)C[C@H]3F)c21` (single isomer, unassigned) [I-348], in series [1], the DC50 is less than 10 nM. Moreover, the bioavailability in series [2] is no less than 5%.
For `Cn1c(=O)n(C2CCC(=O)NC2=O)c2ccc(F)c([C@H]3CCN(C[C@H]4CC[C@H](n5cc6cc(NC(=O)c7cncc(C(F)(F)F)n7)ccc6n5)CC4)C[C@@H]3F)c21` (single isomer, unassigned) [I-353], in series [1], the DC50 lay within 10 to 100 nM. The bioavailability in series [2] was no less than 5%.
In the same order, the values of `O=C1CCC(n2c(=O)oc3c([C@@H]4CCN(C[C@H]5CC[C@H](n6cc7cc(NC(=O)c8cncc(C(F)(F)F)n8)ccc7n6)CC5)C[C@H]4F)cccc32)C(=O)N1` (single isomer, unassigned) [I-357] are less than 10 nM and no more than 5%.
In the same order, the values of `O=C1CCC(n2c(=O)oc3c([C@H]4CCN(C[C@H]5CC[C@H](n6cc7cc(NC(=O)c8cncc(C(F)(F)F)n8)ccc7n6)CC5)C[C@@H]4F)cccc32)C(=O)N1` (single isomer, unassigned) [I-360] are greater than 200 nM and no more than 5%.
In the same order, the values of `Cn1nc(C2CCC(=O)NC2=O)c2cccc([C@@H]3CCN(C[C@H]4CC[C@H](n5cc6cc(NC(=O)c7cncc(C#N)c7)c(C(C)(C)O)cc6n5)CC4)C[C@H]3F)c21` (single isomer, unassigned) [I-362] are less than 10 nM and no less than 5%.
With `Cn1nc(C2CCC(=O)NC2=O)c2cccc([C@H]3CCN(C[C@H]4CC[C@H](n5cc6cc(NC(=O)c7cncc(C#N)c7)c(C(C)(C)O)cc6n5)CC4)C[C@@H]3F)c21` (single isomer, unassigned) [I-363], the DC50 in series [1] was less than 10 nM. For the same compound, the bioavailability in series [2] was no less than 5%.
